SMILES strings stand for the structures. Where two headings read alike, the source gives them in different places.

One assay addresses human ATX (Homo sapiens (Human), UniProt Q13822). In words: Human ATX enzyme inhibition assay (fluorescence quenching, MR121 substrate). The assay is classed as biochemical. Here is the method:
Human ATX Enzyme Inhibition Assay
ATX inhibition was measured by a fluorescence quenching assay using a specifically labeled substrate analogue (MR121 substrate). To obtain this MR121 substrate, BOC and TBS protected 6-amino-hexanoic acid (R)-3-({2-[3-(2-{2-[2-(2-amino-ethoxy)-ethoxy]-ethoxy}-ethoxy)-propionylamino]-ethoxy}-hydroxy-phosphoryloxy)-2-hydroxy-propyl ester (Ferguson et al., Org Lett 2006, 8 (10), 2023) was labeled with MR121 fluorophore (CAS 185308-24-1, 1-(3-carboxypropyl)-11-ethyl-1,2,3,4,8,9,10,11-octahydro-dipyrido[3,2-b:2′,3′-i]phenoxazin-13-ium) on the free amine of the ethanolamine side and then, after deprotection, subsequently with tryptophan on the side of the aminohexanoic acid.
(§1) Assay working solutions were made as follows:
Assay buffer (50 mM Tris-HCl, 140 mM NaCl, 5 mM KCl, 1 mM CaCl2, 1 mM MgCl2, 0.01% Triton-X-100, pH 8.0;
ATX solution: ATX (human His-tagged) stock solution (1.08 mg/mL in 20 mM bicine, pH 8.5, 0.15 M NaCl, 10% glycerol, 0.3% CHAPS, 0.02% NaN3), diluted to 1.4-2.5× final concentration in assay buffer;
MR121 substrate solution: MR121 substrate stock solution (800 μM MR121 substrate in DMSO), diluted to 2-5× final concentration in assay buffer.
Test compounds (10 mM stock in DMSO, 8 μL) were obtained in 384 well sample plates (Corning Costar #3655) and diluted with 8 μL DMSO. Row-wise serial dilutions were made by transferring 8 μL cpd solution to the next row up to row O. The compound and control solutions were mixed five times and 2 μL were transferred to 384 well assay plates (Corning Costar #3702). Then, 15 μL of 41.7 nM ATX solution was added (30 nM final concentration), mixed five times and then incubated for 15 minutes at 30° C. 10 μL of MR121 substrate solution was added (1 μM final concentration), mixed 30 times and then incubated for 15 minutes at 30° C.

Assay [1] has as its target Human carbonic anhydrase II (hCA-II) (Homo sapiens (Human), UniProt P00918). Kind of assay: Human carbonic anhydrase-II inhibition assay (absorbance, 4-nitrophenyl acetate substrate). Type of assay: biochemical. Here is the method: Human Carbonic Anhydrase-II Inhibition Assay
Human carbonic anhydrase II (hCA-II) inhibition was measured by an absorbance method using 4-nitrophenyl acetate (4-NPA) as its substrate. 4-NPA can be catalyzed by active hCA II via a zinc-hydroxide mechanism. The nitrophenolate in the products can be ionized to generate a bright yellow anion with high absorbance at 348 to 400 nm, as reported in the literature (Armstrong et al., J. Biol. Chem. 1966, 241, 5137-5149). OD340 nm was chosen for detecting hCA II substrate conversion.
as §1
Assay buffer: 50 mM MOPS, 33 mM Na2SO4, 1 mM EDTA, 0.5 mg/ml BSA, pH 7.5;
Enzyme solution: hCA-II (human, full length) stock solution (1.0 mg/mL in 20 mM HEPES, 50 mM NaCl, pH 7.4), diluted to 2133× final concentration in assay buffer;
4-NPA substrate solution: 4-NPA substrate stock solution (250 mM in DMSO, stored at −20° C.), diluted to 50× final concentration in deionized water.
Test compounds (10 mM stock in DMSO, 100 μL) were obtained in […] sample plates (Corning Costar #3655) and diluted to 0.5 mM. Column-wise serial dilutions were made by transferring 20 μL compound solutions to the next column, from column 3 up to 22. After this, 1.2 μL were transferred to 384 well assay plates (Corning Costar #3701). Then 30 μL of 16 nM hCA II solution was added (8 nM final concentration), mixed five times. 30 μL of 4-NPA substrate solution was added (2.5 mM final concentration), mixed five times. Absorbance at 340 nm was then measured immediately as time zero. The assay plates were incubated at room temperature for 1 hour and then measured as time 1 hour (Perkin Elmer EnVision 2103; Filter: Photometric 340; Light intensity 60%; Number of flashes: 10). IC50 values and Ki values were calculated from these readouts.

[2] abbreviates: human His-tagged ATX 30 nM, MR121 substrate 1 μM, 30° C., read-out: ATX IC50.
Where [3] appears, read: hCA II 8 nM, 4-NPA 2.5 mM, absorbance 340 nm, room temperature 1 hour, read-out: CA-II IC50.

On to `CC(C)(C)C(=O)Nc1cc(Cl)c(Cl)nc1COC(=O)N1CC2=C(C1)CN(C(=O)c1ccc(S(N)(=O)=O)c(F)c1F)C2` [Example 1.30, [5,6-dichloro-3-(2,2-dimethylpropanoylamino)pyridin-2-yl]methyl 2-(2,3-difluoro-4-sulfamoylbenzoyl)-1,3,4,6-tetrahydropyrrolo[3,4-c]pyrrole-5-carboxylate], for which the 50% inhibitory concentration (IC50) (in general, the concentration needed to halve the response being measured) against human ATX was 10 nM; in assay [1] it was 4.2 nM.

For the molecule `CC(C)(C)C(=O)Nc1cccnc1COC(=O)N1CC2=C(C1)CN(C(=O)c1ccc(S(N)(=O)=O)cc1F)C2` [Example 1.19, [3-(2,2-dimethylpropanoylamino)pyridin-2-yl]methyl 2-(2-fluoro-4-sulfamoylbenzoyl)-1,3,4,6-tetrahydropyrrolo[3,4-c]pyrrole-5-carboxylate], the IC50 at human ATX (setting [2]) was found to be 10 nM; in assay [1] (setting [3]) it was 4 nM.

For the molecule `NS(=O)(=O)c1ccc(C(=O)N2CC3=C(CN(C(=O)c4cc(OCC5CCOCC5)nc(C5CC5)c4)C3)C2)c(F)c1F` [Example 1.33, 4-[5-[2-cyclopropyl-6-(oxan-4-ylmethoxy)pyridine-4-carbonyl]-1,3,4,6-tetrahydropyrrolo[3,4-c]pyrrole-2-carbonyl]-2,3-difluorobenzenesulfonamide], the IC50 against human ATX came out at 1 nM; in assay [1], 2.3 nM.

`Cc1nnn(Cc2cc(Cl)ccc2CCC(=O)N2CC3=C(C2)CN(C(=O)c2ccc(S(N)(=O)=O)cc2F)C3)n1` [Example 3.07, 4-[2-[3-[4-chloro-2-[(5-methyltetrazol-2-yl)methyl]phenyl]propanoyl]-1,3,4,6-tetrahydropyrrolo[3,4-c]pyrrole-5-carbonyl]-3-fluorobenzenesulfonamide]: the IC50 against human ATX turned out to be 4 nM; in assay [1], 5 nM.

Turning to `NS(=O)(=O)c1ccc(C(=O)N2CC3=C(CN(C(=O)OCc4ccc(OC(F)(F)F)cc4)C3)C2)nc1` [Example 2.02, [4-(trifluoromethoxy)phenyl]methyl 2-(5-sulfamoylpyridine-2-carbonyl)-1,3,4,6-tetrahydropyrrolo[3,4-c]pyrrole-5-carboxylate], the figures for the half-maximal inhibitory concentration (IC50) (against human ATX; in assay [1]) were 3 nM and 8 nM, respectively.

Regarding `NS(=O)(=O)c1ccc(C(=O)N2CC3=C(CN(C(=O)COc4ccc(OC(F)(F)F)cc4)C3)C2)c(F)c1` [Example 3.05, 3-fluoro-4-[2-[2-[4-(trifluoromethoxy)phenoxy]acetyl]-1,3,4,6-tetrahydropyrrolo[3,4-c]pyrrole-5-carbonyl]benzenesulfonamide], the figures for the concentration for half-maximal inhibition (IC50) (at human ATX; in assay [1]) were 4 nM and 9 nM, respectively.

On to `Cc1cn(Cc2cc(C(F)(F)F)ccc2CCC(=O)N2CC3=C(C2)CN(C(=O)c2ccc(S(N)(=O)=O)cc2F)C3)nn1` [Example 3.09, 3-fluoro-4-[2-[3-[2-[(4-methyltriazol-1-yl)methyl]-4-(trifluoromethyl)phenyl]propanoyl]-1,3,4,6-tetrahydropyrrolo[3,4-c]pyrrole-5-carbonyl]benzenesulfonamide], for which the half-inhibitory concentration (IC50) amounted to 1 nM against human ATX and 11 nM in assay [1].

Take `NS(=O)(=O)c1ccc(C(=O)N2CC3=C(CN(C(=O)c4cc(OCC5CCOCC5)nc(C5CC5)c4)C3)C2)c(F)c1` [Example 1.08, 4-[5-[2-cyclopropyl-6-(oxan-4-ylmethoxy)pyridine-4-carbonyl]-1,3,4,6-tetrahydropyrrolo[3,4-c]pyrrole-2-carbonyl]-3-fluorobenzenesulfonamide]: the half-inhibitory concentration (IC50) at human ATX (setting [2]) was 8 nM; in assay [1] (setting [3]) it was 6 nM.

With `CC(C)(C)C(=O)Nc1cc(Cl)cnc1COC(=O)N1CC2=C(C1)CN(C(=O)c1cc(F)c(S(N)(=O)=O)cc1F)C2` [Example 1.16, [5-chloro-3-(2,2-dimethylpropanoylamino)pyridin-2-yl]methyl 2-(2,5-difluoro-4-sulfamoylbenzoyl)-1,3,4,6-tetrahydropyrrolo[3,4-c]pyrrole-5-carboxylate], the concentration for half-maximal inhibition (IC50) on human ATX (setting [2]) came to 9 nM; in assay [1] (setting [3]), 10.2 nM.

For `CC(C)(C)C(=O)Nc1ccc(Cl)nc1COC(=O)N1CC2=C(C1)CN(C(=O)c1ccc(S(N)(=O)=O)c(F)c1F)C2` [Example 1.22, [6-chloro-3-(2,2-dimethylpropanoylamino)pyridin-2-yl]methyl 2-(2,3-difluoro-4-sulfamoylbenzoyl)-1,3,4,6-tetrahydropyrrolo[3,4-c]pyrrole-5-carboxylate], the IC50 was 6 nM at human ATX (setting [2]) and 2 nM in assay [1] (setting [3]).

In the case of `Cc1nnn(Cc2cc(Cl)cnc2COC(=O)N2CC3=C(C2)CN(C(=O)c2ccc(S(N)(=O)=O)cc2F)C3)n1` [Example 2.04, [5-chloro-3-[(5-methyltetrazol-2-yl)methyl]pyridin-2-yl]methyl 2-(2-fluoro-4-sulfamoylbenzoyl)-1,3,4,6-tetrahydropyrrolo[3,4-c]pyrrole-5-carboxylate], the half-maximal inhibitory concentration (IC50) against human ATX amounted to 12 nM; in assay [1], 1.9 nM.

`CC(C)(C)C(=O)Nc1cc(C(F)(F)F)cnc1COC(=O)N1CC2=C(C1)CN(C(=O)c1ccc(S(N)(=O)=O)cc1)C2` [Example 1.00, [3-(2,2-Dimethylpropanoylamino)-5-(trifluoromethyl)pyridin-2-yl]methyl 2-(4-sulfamoylbenzoyl)-1,3,4,6-tetrahydropyrrolo[3,4-c]pyrrole-5-carboxylate]: the IC50 on human ATX (setting [2]) is 6 nM; in assay [1] (setting [3]), 14 nM.

As to `NS(=O)(=O)c1ccc(C(=O)N2CC3=C(CN(C(=O)CCc4ccc(OC(F)(F)F)cc4)C3)C2)c(F)c1` [Example 3.02, 3-fluoro-4-[2-[3-[4-(trifluoromethoxy)phenyl]propanoyl]-1,3,4,6-tetrahydropyrrolo[3,4-c]pyrrole-5-carbonyl]benzenesulfonamide], the values for the IC50 (against human ATX; in assay [1]) were 6 nM and 5 nM, respectively.

As for `CC(C)(C)C(=O)Nc1cc(C(F)(F)F)cnc1COC(=O)N1CC2=C(C1)CN(C(=O)c1ccc(S(N)(=O)=O)cc1F)C2` [Example 1.04, [3-(2,2-dimethylpropanoylamino)-5-(trifluoromethyl)pyridin-2-yl]methyl 2-(2-fluoro-4-sulfamoylbenzoyl)-1,3,4,6-tetrahydropyrrolo[3,4-c]pyrrole-5-carboxylate], the 50% inhibitory concentration (IC50) on human ATX (setting [2]) stood at 4 nM; in assay [1] (setting [3]) it was 5 nM.

With `Cc1nnn(Cc2cc(C(F)(F)F)ccc2CCC(=O)N2CC3=C(C2)CN(C(=O)c2ncc(S(N)(=O)=O)cc2F)C3)n1` [Example 4.00, 5-fluoro-6-[2-[3-[2-[(5-methyltetrazol-2-yl)methyl]-4-(trifluoromethyl)phenyl]propanoyl]-1,3,4,6-tetrahydropyrrolo[3,4-c]pyrrole-5-carbonyl]pyridine-3-sulfonamide], the values for the concentration for half-maximal inhibition (IC50) (on human ATX (setting [2]); in assay [1] (setting [3])) were 10 nM and 3.8 nM, respectively.

On to `CC(C)(C)C(=O)Nc1cc(C(F)(F)F)cnc1COC(=O)N1CC2=C(C1)CN(C(=O)c1ccc(S(N)(=O)=O)cn1)C2` [Example 1.05, [3-(2,2-dimethylpropanoylamino)-5-(trifluoromethyl)pyridin-2-yl]methyl 2-(5-sulfamoylpyridine-2-carbonyl)-1,3,4,6-tetrahydropyrrolo[3,4-c]pyrrole-5-carboxylate], for which the results for the half-inhibitory concentration (IC50) (on human ATX (setting [2]); in assay [1] (setting [3])) were 7 nM and 11 nM, respectively.

For the origin of these results see patent publication US10647719B2, “Bicyclic compounds as dual ATX/CA inhibitors” (Hoffmann-La Roche Inc., priority 2015, dated 2020).
